The values below come from patent US8883798B2, “Pyrimidine compounds inhibiting the formation of nitric oxide and prostaglandin E2, method of production thereof and use thereof” (Ustav Organicke Chemie a Biochemie Akademie Ved CR, V.V.I., priority 2011, dated 2014).

Data set [1] deals with production of prostaglandin E2 (PGE2). Briefly: Production of prostaglandin E2 (PGE2) in cultures of mouse peritoneal cells stimulated with LPS (ELISA kit). Format: cell-based, mice. The note with it: Table 3A, substance 50 μmol·l^−1, 6 h. Summed up:
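C57BL/6 mouse peritoneal cells (3×10^6/mL) stimulated with LPS (10 ng/mL). PGE2 measured by ELISA.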

The test system of data set [2] is Salmonella typhimurium TA 98 and TA 100, Escherichia coli WP2 uvrA. The procedure: With compound 28, its possible mutagenicity (genotoxicity) was assessed using the standard bacterial reverse mutation test. According to Council Regulation (ES) No. 440/2008, stipulating the test methods according to the European Parliament and Council regulation (ES), the method used was B.13/14, Mutagenicity—Reverse Mutation Test Using Bacteria, which is described in the same way also in the OECD Test Guideline No. 471.
[…] The experiments were conducted without using metabolic activation and after activation with supernatant S9 from […] livers and with mixtures of cofactors (NADP and glucoso-6-phosphate) to determine the mutagenicity of the metabolic products of the compound tested. Supernatant S9 was prepared according to the literature [Mutat. Res. 113, 173-215, 1983].
The principle of the test is to detect possible revertants created by reverse mutation, which would be induced in the bacterial culture by the tested compound. Specially constructed bacterial strains are used, carrying mutations in the place for his (trp), which are not capable of forming colonies on the minimum plates without histidine or tryptophan. […] Mutagenic potential is given by the growing number of revertants in the influenced groups in comparison with a negative control, and/or in dependence on the growing number of revertants on the dose of the tested compound.
Bacterial testers, types Salmonella typhimurium TA 98 (CCM 3811) and Escherichia coli WP2 uvrA (CCM 4751), were acquired from the Czech Collection of Microorganisms of Masaryk University, Brno and the strain Salmonella typhimurium TA100 (CIP 103796, lot No. 1008) from the Biological Resource Center, Institut Pasteur in Paris (CRBIP).

Data set [3] relates to production of nitric oxide (NO). Put plainly: Production of nitric oxide (NO) in cultures of mouse peritoneal cells stimulated with IFN-γ plus LPS (Griess reagent). It counts as cell-based, mice. The note with it: Table 3A; substance 50 μmol·l^−1; IFN-g plus LPS; 24 h. In outline: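 C57BL/6 mouse peritoneal cells (2×10^6/mL) stimulated with IFN-γ (5000 pg/mL) plus LPS (100 pg/mL), compounds at 50 μmol·l^−1. Nitrite measured by Griess reagent after 24 h, expressed as % of stimulated control (set 100%); IC50 is concentration reducing NO by 50%.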

Data set [4] has as its system peritoneal cells of mice. Put plainly: Cell viability of mouse peritoneal cells (WST-1 kit). It counts as cell-based. The conditions noted are these: Table 3A, substance 50 μmol·l^−1, 24 h. In outline: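 C57BL/6 mouse peritoneal cells (1×10^6/mL) cultured 24 h with compounds at 50 μmol·l^−1. Viability read with WST-1 tetrazolium salt and expressed as percent of untreated control cells (100%).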

Data set [5] relates to HUVEC. Briefly: HUVEC cell proliferation (XTT assay). The note with it: 10 to 50 μmol/L, 8 hours. Format: cell-based, human.
Data set [6] has as its system human umbilical vein endothelial cells (HUVEC). Put plainly: Tube formation assay of HUVEC on Matrigel (in vitro angiogenesis). The conditions noted are these: 8 h. It counts as cell-based. From the text:
This so called “Tube Formation Assay” is a method based on the ability of endothelial cells to form capillary-like tubular structures when cultured on Matrigel™ (a gel of basement membrane extract—their natural substrate). The process of capillary-like tube formation includes endothelial cell attachment, migration, and differentiation into tubules. In this experiment, treatment with tested compounds started at the time of seeding HUVEC onto Matrigel and the extent of tubule development was observed after an 8 h time period. Disruption of tube formation was then assessed through observation of the tubular network and direct comparison to solvent-only controls. The quantitative and qualitative measurement of tubular network complexity was performed using web-based S.CORE imaging software and expressed by means of number of tubes, their total length, quality, number of branching points, etc. All these parameters were integrated into “tube formation index” which corresponds to the degree of complexity of tubular network. […] At a 10 μmol/L concentration, compound 23 reduced tube formation by >90%. […] Apoptosis in HUVECs (at ˜70% confluency) treated with or without varying concentrations (relevant for the tube formation assay) of tested substances was assessed by a combination of Annexin V and JC-1 staining. After 8 h of these treatments, cells were collected, and the cell population undergoing apoptosis was identified by double-parameter flow cytometry using annexin V and the vital dye propidium iodide (PI). Mitochondrial membrane potential in treated endothelial cells was measured using the lypophilic probe JC-1, which aggregates in healthy mitochondria and fluoresces red, but diffuses in the cytoplasm and fluoresces green upon mitochondrial damage. In both cases, quantification of apoptotic cells were conducted in BD FACSDiva software.

On to `Nc1nc(Cl)c(Cc2ccccc2)c(Cl)n1` [Substance 34], for which the “Production of prostaglandins in % of the controls” value in data set [1] is 3.71 ± 2.00 % of the controls. The “Mutagenicity (reverse mutation)” value in data set [2] (all strains, all tested concentrations, with and without metabolic activation) is “non-mutagenous”. Further, the “Production of nitric oxide in % of the controls” value in data set [3] is reported as 50.57 ± 9.31 % of the controls. Also, the “Cell viability in % of the controls” value in data set [4] is given as 105.92 ± 20.65 % of the controls.

For `[N-]=[N+]=[N-]` [sodium azide, reference compound], the “Number of revertants, positive control for −MA I” value in data set [2] (arrangement of FIG. 5 (TA 100), without metabolic activation, 1.5 μg) was > 500.

`CN(C)C=Nc1nc(Cl)c(Cc2ccccc2)c(Cl)n1` [Substance 23]: the “Production of prostaglandins in % of the controls” value in data set [1] is 3.05 ± 1.26 % of the controls. Also, the HUVEC cell proliferation entry in data set [5] is recorded as “did not influence HUVEC cell proliferation”. Also, the “Production of nitric oxide in % of the controls” value in data set [3] was 4.41 ± 0.59 % of the controls. Further, in data set [6] (10 μmol/L), the “Effect on tube formation” value is recorded as “tube disruption” and the “Reduction of tube formation” value was > 90%. In data set [6], the Capillary tube formation entry is given as “inhibited capillary tube formation in a dose dependent manner” and the “Concentration from which antiangiogenic activity was apparent” value is ≥ 5 µmol/L. Moreover, in data set [4], the “Cell viability in % of the controls” value is reported as 96.24 ± 11.9 % of the controls.

As to `CCC(C)c1c(Cl)nc(/N=C/N(C)C)nc1Cl` (centres unmarked) [Substance 21, 5-sec-butyl-4,6-dichloro-2-{[(dimethylamino)methylene]amino}pyrimidine], the melting point was 67 to 68 °C.

`CCCCc1c(Cl)nc(N)nc1-c1ccsc1` [Substance 42, 2-amino-5-butyl-4-chloro-6-(thiophen-3-yl)pyrimidine] gave a melting point of 154 to 155 °C.

In turn, `CCc1c(Cl)nc(/N=C/N(C)C)nc1Cl` [Substance 14, 4,6-dichloro-5-ethyl-2-{[(dimethylamino)methylene]amino}pyrimidine] showed a melting point of 78 to 80 °C.

For the molecule `CC(C)c1c(Cl)nc(NC=O)nc1Cl` [Substance 53], the “Production of prostaglandins in % of the controls” value in data set [1] is reported as 8.57 ± 0.99 % of the controls. In addition, the HUVEC cell proliferation entry in data set [5] is “did not influence HUVEC cell proliferation”. For the same molecule, the “Production of nitric oxide in % of the controls” value in data set [3] was 0.70 ± 0.22 % of the controls. In data set [6] (10 μmol/L), the “Effect on tube formation” value is “only limited effect”. Also, the Incomplete tube formation in data set [6] (25 μmol/L) is ~46%. The Capillary tube formation result in data set [6] is given as “inhibited capillary tube formation in a dose dependent manner”. Also, the “Cell viability in % of the controls” value in data set [4] is 60.02 ± 0.29 % of the controls.

Turning to `O=CNc1nc(Cl)c(Cc2ccccc2)c(Cl)n1` [Substance 59, 5-benzyl-4,6-dichloro-2-formamidopyrimidine], the melting point fell in the range of 93 to 95 °C.

Regarding `O=CNc1nc(Cl)c(-c2ccccc2)c(Cl)n1` [Substance 56, 4,6-dichloro-2-formamido-5-phenylpyrimidine], the melting point lay within 95 to 96 °C.

`CN(C)/C=N/c1nc(Cl)c(-c2ccccc2)c(Cl)n1` [Substance 24, 4,6-dichloro-2-{[(dimethylamino)methylene]amino}-5-phenylpyrimidine] returned a melting point of 67 to 68 °C.

`CCCCc1c(-c2cc3ccccc3o2)nc(N)nc1-c1cc2ccccc2o1` [Substance 47, 2-amino-4,6-bis(benzofuran-2-yl)-5-butylpyrimidine]: the melting point lay in the range of 142 to 144 °C.

Consider `CCCCc1c(Cl)ncnc1Cl` [Substance 61, 5-butyl-4,6-dichloropyrimidine], for which the melting point lay in the range of 62 to 63 °C.

The molecule `CCC(C)c1c(Cl)nc(NC=O)nc1Cl` (centres unmarked) [Substance 54, 5-(sec-butyl)-4,6-dichloro-2-formamidopyrimidine] displayed a melting point of 92 to 93 °C.

`Nc1nc(Cl)c(Cc2ccccc2)c(Cl)n1` [Substance 34, 2-amino-5-benzyl-4,6-dichloropyrimidine] returned a melting point of 196 to 197 °C.

As for `Cc1c(Cl)nc(/N=C/N(C)C)nc1Cl` [Substance 13, 4,6-dichloro-5-methyl-2-{[(dimethylamino)methylene]amino}pyrimidine], the melting point fell in the range of 84 to 86 °C.

Regarding `C=C(Cl)Cc1c(Cl)nc(NC=O)nc1Cl` [Substance 60, 4,6-dichloro-5-(2-chloroallyl)-2-formamidopyrimidine], the melting point lay within 113 to 115 °C.

In turn, `CCCCc1c(-c2ccccc2)nc(N)nc1-c1ccccc1` [Substance 45, 2-amino-5-butyl-4,6-diphenylpyrimidine] came in with a melting point of 154 to 155 °C.

`[2H]C([2H])([2H])C([2H])([2H])C([2H])([2H])C([2H])([2H])c1c(Cl)nc(N)nc1Cl` [Substance 35, 2-amino-5-(perdeutero-butyl)-4,6-dichloropyrimidine] yielded a melting point of 170 to 171 °C.

For the molecule `Nc1nc(I)c(Cc2ccccc2)c(I)n1` [Substance 38, 2-amino-5-benzyl-4,6-diiodopyrimidine], the melting point was 198 to 199 °C.

In the case of `CCC(C)c1c(I)nc(N)nc1I` (centres unmarked) [Substance 36, 2-amino-5-(sec-butyl)-4,6-diiodopyrimidine], the melting point lay within 173 to 174 °C.

As for `Cc1c(Cl)nc(NC=O)nc1Cl` [Substance 48, 4,6-dichloro-2-formamido-5-methylpyrimidine], the melting point was 123 to 124 °C.

Molecule `CCCCc1c(Cl)nc(/N=C/N(C)C)nc1Cl` [Substance 19, 5-butyl-4,6-dichloro-2-{[(dimethylamino)methylene]amino}pyrimidine] showed a melting point of 65 to 67 °C.

On to `Cc1c(Cl)nc(N)nc1Cl` [Substance 25, 2-amino-4,6-dichloro-5-methylpyrimidine], for which the melting point is 189 to 190 °C.

Molecule `C#CCc1c(Cl)nc(NC=O)nc1Cl` [Substance 58, 4,6-dichloro-2-formamido-5-(prop-2-yn-1-yl)pyrimidine] gave a melting point of 127 to 128 °C.

Molecule `CCCCCCc1c(Cl)nc(NC=O)nc1Cl` [Substance 55, 4,6-dichloro-2-formamido-5-hexylpyrimidine] had a melting point of 80 to 81 °C.

With `CCCCc1c(Cl)nc(N)nc1Cl` [Substance 28, 2-amino-5-butyl-4,6-dichloropyrimidine], the melting point fell in the range of 169 to 170 °C.

The molecule `CCC(C)c1c(Cl)nc(N)nc1Cl` (centres unmarked) [Substance 30, 2-amino-5-(sec-butyl)-4,6-dichloropyrimidine] showed a melting point of 159 to 160 °C.

As to `CCCCc1c(Cl)nc(N)nc1-c1cccnc1` [Substance 43, 2-amino-5-butyl-4-chloro-6-(pyridin-3-yl)pyrimidine], the melting point was in the range of 189 to 190 °C.

The molecule `CC(C)c1c(Cl)nc(/N=C/N(C)C)nc1Cl` [Substance 16, 4,6-dichloro-5-isopropyl-2-{[(dimethylamino)methylene]amino}pyrimidine] returned a melting point of 77 to 78 °C.

As to `CC(C)c1c(Cl)nc(NC=O)nc1Cl` [Substance 53, 4,6-dichloro-2-formamido-5-isopropylpyrimidine], the melting point lay within 95 to 96 °C.

The molecule `Nc1nc(Br)c(Cc2ccccc2)c(Br)n1` [Substance 40, 2-amino-5-benzyl-4,6-dibromopyrimidine] came in with a melting point of 154 to 155 °C.
